# Counter-ions that a name gives are not always drawn.
# Molecular target: T1, human FPTase (Homo sapiens, UniProt P49354+P49356)
# T1 construct: made in house
# Assay: In vitro inhibition of Ras farnesyl transferase (human FPTase)
# Assay type: biochemical
# Details: [3H]-FPP incorporation, 100 nM Ras-CVIM, 30 min; read-out: IC50 against human FPTase
compound,measurement,value
"N#Cc1ccc(Cn2cncc2CCC(=O)Nc2cccc(Cl)c2)cc1 [Example 1, N-(3-chlorophenyl)-3-[1-(4-cyanobenzyl)-5-imidazolyl]propionamide hydrochloride]",IC50,< 10 µM

# Reference: patent US5968965A, “Inhibitors of farnesyl-protein transferase” (Merck & Co., Inc., priority 1997, dated 1999)
